Patent publication US20250305982A1, “DEVICE AND METHOD FOR THE DETECTION OF BIOMARKERS ASSOCIATED WITH NEURODEGENERATIVE DISEASES” (CONSEJO NACIONAL DE INVESTIGACIONES CIENTÍFICAS Y TÉCNICAS …, priority 2022, published 2025)

Assays:
fibrillar AS = target: T1, fibrillar AS (Homo sapiens, UniProt P37840); experiment: Sandwich immunoassay, Doxy-5 adsorbed on polystyrene microplates; assay type: binding
T1 construct: made in house; host or cells: E. coli BL21
Procedure: The design is based on an immunoassay with a conventional sandwich system involving the capture of fibrillar species of AS by Doxy-5, followed by detection with two antibodies: an anti-human AS antibody, and an antibody conjugated to a peroxidase. Briefly, the compound of formula (II) is incubated in polystyrene microplates wherein it is adsorbed. After several rinses, to eliminate any non-adsorbed molecules, the system is incubated with a primary anti-human AS rabbit antibody. After rinsing, the system is then incubated with a secondary anti-rabbit antibody conjugated to peroxidase. The conjugated antibody reacts specifically with the primary antibodies which are bound to the immunocaptured AS. […] After incubating, a blue color develops, whose intensity depends on the concentration and the affinity of Doxy-5 to the AS species. The enzymatic reaction is stopped by the addition of sulfuric acid, which produces a color shift towards yellow which is spectrometrically quantifiable at 450 nm.
(§1) The 96-well polystyrene plate was sensitized by incubation overnight a 4° C. and protected from light with 20 μg/mL of the compound of formula (II) in 20 mM sodium acetate pH 5 (50 μL/well). The plate was rinsed with PBST (PBS 10 mM pH 7.4+Tween-80 0.01%) and blocked with 150 μL/well of a 0.1% lysozyme solution in PBS 10 mM pH 7.4 during 1 h at 37° C. After rinsing, 50 μL of the samples with the analytes of interest prepared in 10 mM PBS pH 7.4 were added to each well, and the plate was incubated at 37° C. for 2 h. […] Immediately thereafter, the developed absorbance is measured with a TECAN Spark microplate reader.
The focus of the immunoassay takes advantage of the generation of a colored compound by action of the peroxidase on the substrate (TMB), which is proportional to the concentration of the AS analytes captured by Doxy-5. The absorbance readings at 450 nm were acquired with a TECAN Spark microplate reader. […]

AS fibers = target: T2, AS fibers (Homo sapiens, UniProt P37840); experiment: Cyclic voltammetry with gold biosensors modified with Doxy-5; assay type: binding
T2 construct: made in house; host or cells: E. coli BL21
Procedure: A comparative study for different crosslinking agents for the immobilization of Doxy-5 on gold conductive surfaces was performed. 3-mercaptopropionic acid (MPA), which is able to form self-assembled monolayers (SAM) on the substrate thus facilitating its functionalization, was used. Gold was chosen because it is inert for the molecule of interest. Additionally, the use of other agents such as 1-ethyl-3-(3-dimethylaminopropyl) carbodiimide hydrochloride (EDC) and N-hydroxysuccinimide (NHS), either for generating or activating present moieties, is necessary for the formation of covalent bonds with Doxy-5. Concentrations and incubation times were optimized in each modification stage of the gold surface.
Cyclic voltammetry (CV) measurements were first carried out to characterize each of the immobilization stages on a gold substrate. Said measurements were carried out in a cell with tripolar configuration using a platinum electrode as counter electrode, a silver/silver chloride reference electrode, and the modified gold electrodes as working electrodes. The electrolyte [Fe(CN)6]K4, containing the Fe^3+/Fe^2+ redox pair, was used in every characterization assay. […] CV and EIS measurements were also performed in each immobilization stage using phosphate buffer (PBS) at pH 7.4 (FIG. 1). […]

AS PFF = target: T3, AS PFF (Homo sapiens, UniProt P37840); experiment: Comparative binding of immobilized doxycycline hyclate and Doxy-5 to AS aggregates; details: AS aggregates 20 ng/ml; polystyrene microplates; FIG. 8
T3 construct: made in house; host or cells: E. coli BL21
Procedure: as §1, with “h. The plate is then rinsed again, and 50 μL of the anti-AS antibody diluted to 1 μg/ml in 10% bovine fetal serum (BFS in 10 mM PBS pH 7.4) were added to each well, after which the plate was incubated 1.5 h. The plate was rinsed once more and incubated at 37° C. during 1 h with 50 μL/well of the antibody conjugated with peroxidase diluted to 1 μg/ml in 10% bovine fetal serum.” for “h.”
Both doxycycline hyclate and Doxy-5 were immobilized on polystyrene microplates and contacted with AS aggregates (PPF) according to the protocol described in Example 4, using a concentration for the AS aggregates of 20 ng/ml. The binding of the AS aggregates to each molecule was determined as described in Example 4 as well.

Tau aggregates (PFF) = experiment: Immunoassay, Doxy-5 bound to BSA through glutaraldehyde on polystyrene microplate; assay type: binding; details: Taum 100 ng/ml, PFF 1/10000 dilution; Doxy-5 40 μg/ml; FIG. 6
Procedure: The sensitization of the wells was carried out as follows: first, the binding sites of the microplate were blocked with albumin. Afterwards, compound of formula (II) was covalently linked to albumin by using glutaraldehyde as the linker.
For this purpose, a 96-well polystyrene microplate was incubated with 150 μL/well of 1% bovine serum albumin (BSA) overnight at 4° C. in a humid chamber. Then, after three cycles of washing with PBST, 50 μL/well of glutaraldehyde at different concentrations (0.1%, 0.5% and 1%) were added to the wells and the plate was kept during specified times (either 10 minutes for every concentration, or 5 minutes for 0.5% and 1%) under a hood. Wells were then washed three times with PBS, and 50 μL/well of Doxy-5 (40 μg/ml) were added. The plate was then incubated at 37° C. for 30 minutes, protected from light. Afterwards, the wells were washed again with PBST, and 50 μL/well of 1M TRIS was added as a glutaraldehyde-inactivating agent. The microplate was then incubated at 37° C. for 30 minutes. […] To stop the reaction, 25 μL/well of 2N H2SO4 were added, and the microplate was immediately read on a microplate reader (Tecan Spark, Austria) at the wavelength of 450 nm.

amyloid aggregates = details: González-Lizárraga (2017), Medina (2021); cited from earlier work

C[C@H]1c2ccc(N)c(O)c2C(=O)C2=C(O)[C@]3(O)C(=O)C(C(N)=O)=C(O)CC3[C@@H](O)C21 (stereo partly shown) [Doxy-5, 9-amino-4-dedimethylamino doxycycline]
cross-reaction with native (monomeric) AS (fibrillar AS; native AS as negative control): no cross-reaction | AS concentrations showing the best differential reactivity between aggregated and monomeric species (fibrillar AS; wells sensitized with Doxy-5): over 30 ng/mL | affinity towards fibrillar AS (fibrillar AS; wells sensitized with Doxy-5, absorbance 450 nm): nanomolar affinity | electrochemical response of the sensor in the presence of the AS fibers (oxidation peak of voltammogram) (AS fibers; CV, -0.6 V to 0.6 V, 30 mV/seg, Doxy-5 on MPA-SAM gold electrode): clear electrochemical response | interference of the AS monomer in CV response (AS fibers; monomer up to 100 ng/ml, response lower than fibers at 0.1 ng/mL): non-existing interference of the monomer | signal for binding to AS PFF (AS PFF): significantly higher | discrimination between Tau monomer (Taum) and pre-formed fibrils (PFF), signal at 450 nm (Tau aggregates (PFF)): higher signal for PFF compared with Taum and PBS

doxycycline hyclate [reference compound]
signal for binding to AS PFF (AS PFF): positive signal

Cc1ccc2c(c1)sc(-c1ccc(N(C)C)cc1)[n+]2C.[Cl-] [Thioflavin T]
binding to amyloid aggregates structures (amyloid aggregates): strong and specific binding

Nc1c(/N=N/c2ccc(-c3ccc(/N=N/c4cc(S(=O)(=O)O)c5ccccc5c4N)cc3)cc2)cc(S(=O)(=O)O)c2ccccc12 [Congo red]
binding to amyloid aggregates structures (amyloid aggregates): strong and specific binding
